What was measured:
[1] = system: locally advanced or metastatic urothelial cancer; experiment: Phase 2 single-arm, open-label study of enfortumab vedotin 1.25 mg/kg IV on Days 1, 8, 15 of each 28-day cycle: efficacy (confirmed ORR, DOR, PFS per RECIST 1.1 by BICR; OS); type: in vivo, human; details: for ORR point estimates for all subgroups: ORR subgroup analysis
Source text: This is a single-arm, open-label, multicenter trial designed to assess the efficacy and safety of enfortumab vedotin as a single agent in locally advanced or metastatic urothelial cancer patients who have previously received systemic therapy with a CPI. For the purpose of this study a CPI is defined as a programmed cell death protein 1 (PD-1) inhibitor or programmed death-ligand 1 (PD-L1) inhibitor (including, but not limited to: atezolizumab, pembrolizumab, durvalumab, avelumab, and nivolumab). Patients must either have received prior treatment with platinum-containing chemotherapy (Cohort 1) or received no prior treatment with platinum-containing or other chemotherapy and are ineligible for treatment with cisplatin at time of enrollment (Cohort 2).
Enfortumab vedotin at a dose of 1.25 mg/kg will be administered as an intravenous (IV) infusion over approximately 30 minutes on Days 1, 8, and 15 of each 28-day cycle. Patients will continue to receive study treatment until disease progression, unacceptable toxicity, investigator decision, consent withdrawal, start of a subsequent anticancer therapy, pregnancy, or study termination by the sponsor. After discontinuation of study treatment, patients will be followed every 8 weeks (1 week) for response assessments, ECOG performance status, and physical exams. After 1 year of on study, the frequency of follow-up exams including response assessments will be reduced to every 12 weeks (+1 week). Patients that have progressed or begun subsequent anticancer therapy will be contacted every 8 weeks (1 week) up to 1 year on study, and every 12 weeks (+1 week) thereafter to obtain information on subsequent anticancer therapy, and survival status until death, study closure, or withdrawal of consent, whichever occurs first. The study will be closed 5 years after enrollment of the last patient, or when no patients remain in long-term follow-up, whichever occurs first. Additionally, the sponsor may terminate the study at any time.
Measures of anticancer activity will be assessed by computed tomography (CT) scans with contrast approximately every 8 weeks (±1 week). After 1 year on study, response assessments will be reduced to every 12 weeks (±1 week). The schedule of response assessments should not be adjusted for dose delays/interruptions or other reasons for changes in the timing of a patient's study activities; timepoints for response assessments should be calculated from Cycle 1 Day 1 during treatment. For patients who cannot receive CT scans with contrast, other protocol-specified imaging methods may be used. Patients must be evaluated using the same imaging method throughout the study for efficacy assessments. CT scans with contrast at the minimum will include the chest, abdomen, and pelvis. Other regions should be scanned if the patient has known or suspected disease in that region. Responses (complete response (CR) or partial response (PR)) will be confirmed with repeat scans 4 weeks (+1 week window) after first documentation of response. The determination of antitumor activity will be based on confirmed objective response assessments as defined by RECIST Version 1.1.
Response and progression will be assessed by an independent review facility (IRF). The investigator will make treatment decisions based on site assessments of scans by RECIST.
The primary endpoint of this study is the confirmed ORR per IRF. The ORR is defined as the proportion of patients with confirmed CR or PR according to RECIST Version 1.1. The ORR per IRF and its exact 2-sided 95% confidence interval (CI) using the Clopper-Pearson method (Clopper et al., Biometrika (1934); 26(4): 404-413) will be calculated.
The primary efficacy endpoint of this study is ORR (confirmed CR or PR per Response Evaluation Criteria in Solid Tumors (RECIST) Version 1.1) as determined by blinded independent central review (BICR) by an independent review facility (IRF). […]

191P4D12 = target: T1, 191P4D12 (Homo sapiens, UniProt Q96NY8); experiment: Analytical and biological characterization studies: comparability of enfortumab vedotin and AGS-22M6E
T1 sequence (Q96NY8 32-510): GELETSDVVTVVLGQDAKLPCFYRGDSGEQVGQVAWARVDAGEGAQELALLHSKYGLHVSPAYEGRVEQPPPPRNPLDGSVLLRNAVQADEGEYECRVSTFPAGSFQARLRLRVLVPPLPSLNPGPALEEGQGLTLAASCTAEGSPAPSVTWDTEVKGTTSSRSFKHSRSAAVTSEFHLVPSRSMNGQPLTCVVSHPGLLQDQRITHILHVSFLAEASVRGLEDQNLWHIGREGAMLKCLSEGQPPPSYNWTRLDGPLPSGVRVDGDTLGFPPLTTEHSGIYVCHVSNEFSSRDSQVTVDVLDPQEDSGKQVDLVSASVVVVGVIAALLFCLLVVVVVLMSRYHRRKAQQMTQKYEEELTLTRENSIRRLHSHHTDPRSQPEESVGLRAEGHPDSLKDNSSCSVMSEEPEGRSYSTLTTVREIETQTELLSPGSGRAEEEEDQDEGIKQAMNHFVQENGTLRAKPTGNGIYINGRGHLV
Source text: As described above and in U.S. Pat. No. 8,637,642, AGS-22M6E is an ADC derived from a murine hybridoma cell line. Enfortumab vedotin is a Chinese hamster ovary (CHO) cell line-derived equivalent of AGS-22M6E ADC and is an exemplary product used for human treatment. Enfortumab vedotin has the same amino acid sequence, linker and cytotoxic drug as AGS-22M6E. The comparability between enfortumab vedotin and AGS-22M6E was confirmed through extensive analytical and biological characterization studies, such as binding affinity to 191P4D12, in vitro cytotoxicity, and in vivo antitumor activity.

[2] = Cohort 2 (N = 89), BICR, additional 3 months follow-up
[3] = Cohort 2 (N = 89), BICR, primary analysis
[4] = Cohort 2, BICR, additional 3 months follow-up
[5] = Cohort 2, BICR, primary analysis
[6] = Cohort 2, Kaplan-Meier, additional 3 months follow-up
[7] = Cohort 2, additional 3 months follow-up

Q: Which “Best Overall Response: Complete Response (CR)” value [1, 2] does the source give for “enfortumab vedotin: Nectin-4 directed ADC: fully human anti-nectin-4 IgG1 kappa antibody (AGS-22C3) conjugated to MMAE via protease-cleavable maleimidocaproyl valine-citrulline linker” here?
A: Its value is 20 (22.5) n (%).

Q: And the “Best Overall Response: Not Evaluable (NE)” value [1, 2]?
A: The value was 8 (9.0) n (%).

Q: What about the “Best Overall Response: Partial Response (PR)” value [1, 2] of the same substance?
A: Its value is 25 (28.1) n (%).

Q: And the “Best Overall Response: Progressive Disease (PD)” value [1, 2]?
A: Its value is 19 (10.1) n (%).

Q: And the “ORR (CR or PR)” value [1, 2]?
A: Its value is 45 (50.6) n (%).

Q: And the “Best Overall Response: Complete Response (CR)” value [1, 3]?
A: The value was 18 (20.2) n (%).

Q: And the “Best Overall Response: Not Evaluable (NE)” value [1, 3]?
A: Its value is 8 (9.0) n (%).

Q: And the “Best Overall Response: Partial Response (PR)” value [1, 3]?
A: The value was 28 (31.5) n (%).

Q: What about the “Best Overall Response: Progressive Disease (PD)” value [1, 3] of the same substance?
A: The value was 8 (9.0) n (%).

Q: What about the “ORR (CR or PR)” value [1, 3] of the same substance?
A: Its value is 46 (51.7) n (%).

Q: What about the “Number of responders (confirmed CR or PR)” value ([1]; Cohort 2 (N = 89), additional 3 months follow-up) of the same substance?
A: Its value is 45.

Q: What about the “95% CI of confirmed ORR” value [1, 4] of the same substance?
A: The value was 39.8-61.3%.

Q: And the “CR among treated patients” value [1, 4]?
A: Its value is 22%.

Q: What about the “confirmed ORR” value [1, 4] of the same substance?
A: The value was 51%.

Q: What about the “CR (complete response rate)” value [1, 5] of the same substance?
A: The value was 20.2%.

Q: What about the ORR [1, 5] of the same substance?
A: Its ORR is 51.7%.

Q: What about the “median DOR” value [1, 5] of the same substance?
A: The value was 10.9 months.

Q: What about the “median PFS” value [1, 5] of the same substance?
A: The value was 5.8 months.

Q: What about the “participants with reduction in tumor measurements” value [1, 5] of the same substance?
A: Its value is 88%.

Q: And the “responders with ongoing response (18 out of 46)” value [1, 5]?
A: The value was 39%.

Q: What about the “% Responders without PD or death (95% CI)” value [1, 6] of the same substance?
A: The value was 35.8 (14.49, 57.91) %.

Q: And the “% Responders without PD or death at 6 months (95% CI)” value [1, 6]?
A: The value was 67.9 (51.11, 79,95) %.

Q: What about the “% Responders without PD or death at 12 months (95% CI)” value [1, 6] of the same substance?
A: Its value is 53.7 (35.51, 68.85) %.

Q: What about the “Duration of response, 25th percentile” value [1, 6] of the same substance?
A: The value was 5.8, − months.

Q: What about the “Duration of response, Median (95% CI)” value [1, 6] of the same substance?
A: The value was 13.8 (6.41, −) months.

Q: What about the “ORR point estimates for all subgroups” value [1, 7] of the same substance?
A: Its value is “more than 40%”.

Q: And the “ORR point estimates for all subgroups” value ([1]; Cohort 2, primary analysis)?
A: Its value is “more than 40%”.

Q: And the “95% CI of median PFS” value [1, 7]?
A: The value was 5.0(8.3) months.

Q: What about the “median DOR” value [1, 7] of the same substance?
A: The value was 13.8 months.

Q: What about the “median PFS” value [1, 7] of the same substance?
A: The value was 6.7 months.

Q: What about the “median OS” value ([1]; Cohort 2, additional 3 months follow-up, median follow-up 16.0 months) of the same substance?
A: Its value is 16.1 months.

Q: And the ORR ([1]; Cohort 2, patients who did not respond to prior PD-1/PD-L1 inhibitors, additional 3 months follow-up)?
A: The ORR was 46%.

Q: What about the ORR ([1]; Cohort 2, patients with liver metastasis, additional 3 months follow-up) of the same substance?
A: Its ORR is 43%.

Q: What about the ORR ([1]; Cohort 2, patients with primary tumor sites in the upper tract, additional 3 months follow-up) of the same substance?
A: Its ORR is 58%.

Q: What about the “median OS” value ([1]; Cohort 2, primary analysis, median follow-up 13.4 months) of the same substance?
A: The value was 14.7 months.

Q: What about the “comparability between enfortumab vedotin and AGS-22M6E (binding affinity to 191P4D12, in vitro cytotoxicity, in vivo antitumor activity)” value (191P4D12) of the same substance?
A: The value was “confirmed”.
